Measurements: patent publication US10703757B2, “Compounds and methods for CDK8 modulation and indications therefor” (Plexxikon Inc., priority 2016, dated 2020)

Legend:
[1] = tested on: CDK8 (TCF/LEF luciferase reporter in HCT116 cells); assay: Cell based TCF/LEF reporter assay (HCT116+TCF/LEF luciferase); details: Homo sapiens, HCT-116, 24 h
Summary of the method: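 Luciferase readout was corrected for viability (CellTiter-Fluor) and scaled between DMSO high and 10 uM CCT251545 low controls, giving IC50 by nonlinear regression. Compounds, serially diluted, were incubated 24 h at 37 °C on HCT116 clones stably expressing a TCF/LEF-driven luciferase reporter.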

[2] = tested on: CDK8 (phosphorylation of STAT1 at serine 727 in A549 cells); assay: Cell based Phospho-STAT1 assay (IFNγ-stimulated A549 cells, AlphaLISA); details: Homo sapiens, A549, A549 cells, phospho-STAT1 after IFNγ stimulation
Summary of the method: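 A549 cells given serial compound dilutions for 1 h at 37 °C, then stimulated with IFNγ at 10 ng/mL final for 30 min. Lysate STAT1 Ser727 phosphorylation measured by AlphaLISA; % inhibition vs stimulated/unstimulated DMSO controls, IC50 by nonlinear regression.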

Row | Compound | IC50 [1] [nM] | IC50 [2] [nM]
1 | N#CC1CC=C(c2cccn3ncc(-c4ccc(OCCCN5CCCCC5)cc4)c23)CC1 (stereo not drawn) [Compound P-0180, 4-(3-(4-(3-(piperidin-1-yl)propoxy)phenyl)pyrazolo[1,5-a]pyridin-4-yl)cyclohex-3-ene-1-carbonitrile] | 0.1 to 100 | 0.1 to 100
2 | N#CC1CC=C(c2cccn3ncc(-c4ccc(OCCN5CCCCC5)cc4)c23)CC1 (stereo not drawn) [Compound P-0181, 4-(3-(4-(2-(piperidin-1-yl)ethoxy)phenyl)pyrazolo[1,5-a]pyridin-4-yl)cyclohex-3-ene-1-carbonitrile] | 0.1 to 100 | 0.1 to 100
3 | N#CC1CC=C(c2cccn3ncc(-c4ccc(OCC5CCCCO5)cc4)c23)CC1 (stereo not drawn) [Compound P-0182, 4-(3-(4-((tetrahydro-2H-pyran-2-yl)methoxy)phenyl)pyrazolo[1,5-a]pyridin-4-yl)cyclohex-3-ene-1-carbonitrile] | 0.1 to 100 | 0.1 to 100
4 | N#CC1CC=C(c2cccn3ncc(-c4ccc(OCCN5CCOCC5)cc4)c23)CC1 (stereo not drawn) [Compound P-0183, 4-(3-(4-(2-morpholino-ethoxy)phenyl)pyrazolo[1,5-a]pyridin-4-yl)cyclohex-3-ene-1-carbonitrile] | 0.1 to 100 | 0.1 to 100
5 | Cn1cc(C#Cc2cnc3[nH]ccc3c2C2=CCC(C#N)CC2)cn1 (stereo not drawn) [Compound P-0184, 4-[5-[2-(1-methylpyrazol-4-yl)ethynyl]-H-pyrrolo[2,3-b]pyridin-4-yl]cyclohex-3-ene-1-carbonitrile] | 100 to 1000 | 0.1 to 100
6 | Cn1cc(-c2ccc(-c3cnn4cccc(C5=CCN(C(N)=O)CC5)c34)cc2)cn1 [Compound P-0185, 4-[3-[4-(1-methylpyrazol-4-yl)phenyl]pyrazolo[1,5-a]pyridin-4-yl]-3,6-dihydro-2H-pyridine-1-carboxamide] | 1000 to 10000 | 100 to 1000
7 | Cc1ccc2cc(-c3cnn4ccnc(C5=CCC(C#N)CC5)c34)ccc2n1 (stereo not drawn) [Compound P-0186, 4-(3-(2-methylquinolin-6-yl)pyrazolo[1,5-a]pyrazin-4-yl)cyclohex-3-ene-1-carbonitrile] | 0.1 to 100 | 0.1 to 100
8 | Cc1ccc2cc(-c3cnn4ccnc(C5CCC(C#N)CC5)c34)ccc2n1 (stereo not drawn) [Compound P-0187, 4-(3-(2-methylquinolin-6-yl)pyrazolo[1,5-a]pyrazin-4-yl)cyclohexane-1-carbonitrile] | 0.1 to 100 | 0.1 to 100
9 | N#CC1CC=C(c2cccn3ncc(-c4ccc(Cl)cc4)c23)CC1 (stereo not drawn) [Compound P-0188, 4-(3-(4-chlorophenyl)pyrazolo[1,5-a]pyridin-4-yl)cyclohex-3-ene-1-carbonitrile] | 0.1 to 100 | 0.1 to 100
10 | N#CC1CCN(c2c(-c3ccc4c(c3)NC(=O)C4)cnc3[nH]ccc23)CC1 [Compound P-0189, 1-(5-(2-oxoindolin-6-yl)-1H-pyrrolo[2,3-b]pyridin-4-yl)piperidine-4-carbonitrile] | 0.1 to 100 | 0.1 to 100
11 | COc1ccc2cc(-c3cnc4[nH]ccc4c3C3=CCC(C#N)CC3)ccc2n1 (stereo not drawn) [Compound P-0190, 4-(5-(2-methoxyquinolin-6-yl)-1H-pyrrolo[2,3-b]pyridin-4-yl)cyclohex-3-ene-1-carbonitrile] | 0.1 to 100 | 0.1 to 100
12 | CC(C)(O)C#Cc1cccn2ncc(-c3ccc4cc(C(N)=O)ccc4c3)c12 [Compound P-0191, 6-(4-(3-hydroxy-3-methylbut-1-yn-1-yl)pyrazolo[1,5-a]pyridin-3-yl)-2-naphthamide] | 100 to 1000 | 0.1 to 100
13 | N#CC1CCC(c2cccn3ncc(-c4ccc5cc(C(=O)O)ccc5c4)c23)CC1 (stereo not drawn) [Compound P-0193, 6-(4-(4-cyanocyclohexyl)pyrazolo[1,5-a]pyridin-3-yl)-2-naphthoic acid] | 1000 to 10000 | 100 to 1000
14 | Cc1ccc2cc(-c3cnn4cccc(C5CCC(C#N)CC5)c34)ccc2n1 (stereo not drawn) [Compound P-0194, 4-(3-(2-methylquinolin-6-yl)pyrazolo[1,5-a]pyridin-4-yl)cyclohexane-1-carbonitrile] | 0.1 to 100 | 0.1 to 100
15 | COc1ccc2cc(-c3cnn4cccc(C5CCC(C#N)CC5)c34)ccc2n1 (stereo not drawn) [Compound P-0195, 4-(3-(2-methoxyquinolin-6-yl)pyrazolo[1,5-a]pyridin-4-yl)cyclohexane-1-carbonitrile] | 0.1 to 100 | 0.1 to 100
16 | NC(=O)C1CC=C(c2cccn3ncc(-c4ccc(-n5ccnn5)cc4)c23)CC1 (stereo not drawn) [Compound P-0196, 4-(3-(4-(1H-1,2,3-triazol-1-yl)phenyl)pyrazolo[1,5-a]pyridin-4-yl)cyclohex-3-ene-1-carboxamide] | 100 to 1000 | 0.1 to 100
17 | NC(=O)C1CC=C(c2cccn3ncc(-c4ccc(-n5cccn5)cc4)c23)CC1 (stereo not drawn) [Compound P-0197, 4-(3-(4-(1H-pyrazol-1-yl)phenyl)pyrazolo[1,5-a]pyridin-4-yl)cyclohex-3-ene-1-carboxamide] | 100 to 1000 | 0.1 to 100

Row | Compound | IC50 [1] [nM] | IC50 [2] [nM]
18 | COc1ccc2cc(-c3cnn4ccnc(C#CC(C)(C)O)c34)ccc2n1 [Compound P-0198, 4-(3-(2-methoxyquinolin-6-yl)pyrazolo[1,5-a]pyrazin-4-yl)-2-methylbut-3-yn-2-ol] | 100 to 1000 | 100 to 1000
19 | CS(=O)(=O)Nc1ccc2cc(-c3cnn4cccc(C5=CCC(C#N)CC5)c34)ccc2c1 (stereo not drawn) [Compound P-0199, N-(6-(4-(4-cyanocyclohex-1-en-1-yl)pyrazolo[1,5-a]pyridin-3-yl)naphthalen-2-yl)methanesulfonamide] | 0.1 to 100 | 0.1 to 100
20 | N#CC1CCN(c2c(-c3ccc4cc(C(=O)O)ccc4c3)cnc3[nH]ccc23)CC1 [Compound P-0200, 6-(4-(4-cyanopiperidin-1-yl)-1H-pyrrolo[2,3-b]pyridin-5-yl)-2-naphthoic acid] | 100 to 1000 | 1000 to 10000
21 | N#CC1CC=C(c2c(-c3ccc(-n4ccnn4)cc3)cnc3[nH]ccc23)CC1 (stereo not drawn) [Compound P-0201, 4-(5-(4-(1H-1,2,3-triazol-1-yl)phenyl)-1H-pyrrolo[2,3-b]pyridin-4-yl)cyclohex-3-ene-1-carbonitrile] | 0.1 to 100 | 100 to 1000
22 | Cc1ccc2cc(-c3cnc4[nH]ccc4c3C3=CCC(C#N)CC3)ccc2n1 (stereo not drawn) [Compound P-0202, 4-(5-(2-methylquinolin-6-yl)-1H-pyrrolo[2,3-b]pyridin-4-yl)cyclohex-3-ene-1-carbonitrile] | 0.1 to 100 | 0.1 to 100
23 | N#CC1CC=C(c2c(-c3ccc(-n4cccn4)cc3)cnc3[nH]ccc23)CC1 (stereo not drawn) [Compound P-0203, 4-(5-(4-(1H-pyrazol-1-yl)phenyl)-1H-pyrrolo[2,3-b]pyridin-4-yl)cyclohex-3-ene-1-carbonitrile] | 0.1 to 100 | 0.1 to 100
24 | CC(C)(O)Cn1cc(-c2ccc(-c3cnc4[nH]cc(Cl)c4c3N3CCC(C#N)CC3)cc2)cn1 [Compound P-0204, 1-(3-chloro-5-(4-(1-(2-hydroxy-2-methylpropyl)-1H-pyrazol-4-yl)phenyl)-1H-pyrrolo[2,3-b]pyridin-4-yl)piperidine-4-carbonitrile] | 0.1 to 100 | 0.1 to 100
25 | N#CC1CC=C(c2c(-c3ccc4c(c3)OCC(=O)N4)cnc3[nH]ccc23)CC1 (stereo not drawn) [Compound P-0205, 4-(5-(3-oxo-3,4-dihydro-2H-benzo[b][1,4]oxazin-7-yl)-1H-pyrrolo[2,3-b]pyridin-4-yl)cyclohex-3-ene-1-carbonitrile] | 0.1 to 100 | 100 to 1000
26 | N#CC1CC=C(c2c(-c3ccc4[nH]c(=O)[nH]c4c3)cnc3[nH]ccc23)CC1 (stereo not drawn) [Compound P-0206, 4-(5-(2-oxo-2,3-dihydro-1H-benzo[d]imidazol-5-yl)-1H-pyrrolo[2,3-b]pyridin-4-yl)cyclohex-3-ene-1-carbonitrile] | 0.1 to 100 | 0.1 to 100
27 | N#CC1CC=C(c2c(-c3ccc4c(c3)C(=O)NC4)cnc3[nH]ccc23)CC1 (stereo not drawn) [Compound P-0207, 4-(5-(3-oxoisoindolin-5-yl)-1H-pyrrolo[2,3-b]pyridin-4-yl)cyclohex-3-ene-1-carbonitrile] | 100 to 1000 | 1000 to 10000
28 | N#CC1CC=C(c2c(-c3ccc4c(c3)NC(=O)C4)cnc3[nH]ccc23)CC1 (stereo not drawn) [Compound P-0208, 4-(5-(2-oxoindolin-6-yl)-1H-pyrrolo[2,3-b]pyridin-4-yl)cyclohex-3-ene-1-carbonitrile] | 0.1 to 100 | 0.1 to 100
29 | Cc1ccc2cc(-c3cnc4[nH]ccc4c3N3CCC(C#N)CC3)ccc2n1 [Compound P-0209, 1-(5-(2-methylquinolin-6-yl)-1H-pyrrolo[2,3-b]pyridin-4-yl)piperidine-4-carbonitrile] | 0.1 to 100 | 0.1 to 100
30 | N#CC1CCC(c2nccn3ncc(-c4ccc(-n5ccnn5)cc4)c23)CC1 (stereo not drawn) [Compound P-0211, 4-(3-(4-(1H-1,2,3-triazol-1-yl)phenyl)pyrazolo[1,5-a]pyrazin-4-yl)cyclohexane-1-carbonitrile] | 100 to 1000 | 0.1 to 100
31 | O=C(O)C1CC=C(c2cccn3ncc(-c4ccc(-n5cccn5)cc4)c23)CC1 (stereo not drawn) [Compound P-0213, 4-(3-(4-(1H-pyrazol-1-yl)phenyl)pyrazolo[1,5-a]pyridin-4-yl)cyclohex-3-ene-1-carboxylic acid] | 1000 to 10000 | 1000 to 10000
32 | Cc1nc2ccc(-c3cnn4cccc(C5=CCC(C#N)CC5)c34)cc2s1 (stereo not drawn) [Compound P-0214, 4-(3-(2-methylbenzo[d]thiazol-6-yl)pyrazolo[1,5-a]pyridin-4-yl)cyclohex-3-ene-1-carbonitrile] | 0.1 to 100 | 0.1 to 100
33 | Cc1nc2ccc(-c3cnn4cccc(C#CC(C)(C)O)c34)cc2s1 [Compound P-0215, 2-methyl-4-(3-(2-methylbenzo[d]thiazol-6-yl)pyrazolo[1,5-a]pyridin-4-yl)but-3-yn-2-ol] | 100 to 1000 | 100 to 1000
